In patent publication US5808109A, “Compounds that inhibit complement and/or suppress immune activity” (T Cell Sciences, Inc., priority 1995, dated 1998):
pIC50: −log10 of the molar value.

Columns and labels:
C3a production = experiment: Inhibition of C3a production in human serum (aggregated IgG, RIA); type: biochemical; settings: human serum, concentration inhibiting C3a production 50% relative to control
Protocol: (§1) The ability to inhibit complement was tested by assaying for specific inhibition of C3a and C5a production. For all experiments, a single human serum pool, to be used as a source of complement, was aliquoted and stored frozen at -70° C. Human IgG was heat-aggregated, aliquoted, and stored frozen at -70° C. For each experiment, serum aliquots were equilibrated at 37° C. with varying concentrations of the compounds tested. The classical complement pathway was initiated by the addition of aggregated human IgG. Control samples containing no IgG were always included. After a fixed reaction time of 10 minutes (determined in an earlier time-course study to provide a convenient time interval during which the production of C5a or C3a is nearly complete, i.e., greater than 90%), the levels of the released complement peptides (C5a or C3a) were determined by radioimmunoassay using commercially available radioimmunoassay (RIA) kits (C5a RIA, UpJohn Cat. No. 3250-02; C3a RIA, UpJohn Cat. No. 3245-01; C5a RIA, Amersham Cat. No. RPA.520; C3a RIA, Amersham RPA.518).
(§2) Since a competitive immunoassay was used, complement peptide (C5a and C3a) concentrations varied inversely with the counts. The Counts Bound (CB) for a sample was defined as the total counts (in counts per minute, cpm) measured in the pellet minus the counts measured in a nonspecific binding (NSB) control. The NSB control was a sample containing only tracer peptide (^125 I-labelled) and second precipitating antiserum; it contained no C5a- or C3a-specific antiserum.
(§3) The y-axis in FIG. 2 represents the fraction inhibition. The fraction inhibition is equal to the Counts Bound (CB) for a "sample," less the CB in the "sample with no added compound," divided by the CB for the "no IgG control" less the CB in the "sample with no added compound." [formula]
(§4) FIG. 2 is representative of the data plots obtained from the assays described above.

C5a production = experiment: Inhibition of C5a production in human serum (aggregated IgG, RIA); type: biochemical; settings: concentration inhibiting C5a production 50% relative to control
Protocol: as §1, §2, §3, §4

[1] = Inhibition of natural killer activity, 51Cr release cytotoxicity assay; type: cell-based; settings: human, k562 cells, read-out: Spont. Release Target Cells Alone (K562)
Protocol: (§5) Compounds were tested for their effects on the ability of peripheral blood mononuclear cells to lyse NK-sensitive target cells, K562. NK activity was determined using ^51 Cr-labeled K562 erythromyeloid leukemia cells as targets, and normal peripheral blood mononuclear cells as effector cells, in a four hour cytotoxicity assay. Effector cells were isolated from fresh blood by Ficoll-Hypaque gradient centrifugation, and 100 μl of a 5×10^5 cell/well suspension were added to each well of a V-bottom microtiter plate. The compound 11a was diluted in RPMI 1640 medium containing 10% fetal calf serum and dispensed at 100 μl per well. Target cells (K562) were labeled for 30 minutes with 100 μCi of ^51 Cr, washed thoroughly and dispensed in a 20 μl volume at 10^4 cells/well. […] The microtiter plate was centrifuged at 50×g for 5 minutes and incubated in a humidified chamber with 5% CO2 at 37° C. After 4 hours, 100 μl were removed from each well and the radioactivity was measured with a LKB 1275 gamma counter. The percent specific lysis was calculated as follows:
(§6) % specific lysis=[(EXP-SR)/(TOTAL-B)]×100
(§7) where EXP (experimental value) was obtained using effector and target cells; SR (the spontaneous release) was obtained from target cells incubated with media alone; TOTAL release was obtained by hypotonic lysis in water; and B represents instrumental background. Means were calculated from quadruplicate wells and the standard deviations never exceeded 10%. Viability of the effector cells incubated with the test compound was determined by trypan blue exclusion.

[2] = system: K562 erythromyeloid leukemia cells (NK-sensitive target cells); experiment: as above; type: cell-based; settings: effector:target 50:1, 4 h
Protocol: as §5, §6, §7

[3] = system: cell surface IL-2R expression; experiment: Inhibition of cell surface IL-2R expression, PHA-stimulated PBL, flow cytometry; type: cell-based; settings: PHA 72 h, total cell count 5000
Protocol: Compounds were tested for their ability to inhibit T cell activation, as indicated by inhibition of cell-surface IL-2R expression. PBL cultures (1.5 ml; 24-well plates) were stimulated with PHA (1 μg/ml) for 72 hours in the absence or presence of varying amounts of compound 11a. Subsequently, the cells were stained using fluorescein isothiocyanate (FITC)-labeled anti-IL-2R antibody (Act-T-Set IL-2R, Cat. No. AA2009, T Cell Sciences, Inc., Cambridge, Mass.) and analyzed by flow cytometry (Ortho System 30) (Table X).

[4] = system: Chinese hamster ovary (CHO) cells; experiment: CHO cell proliferation, 3H-thymidine incorporation; type: cell-based
Protocol: Non-confluent CHO cells were allowed to proliferate for 4 hours in a 96-well plate at a volume of 50 μl per well in the absence or presence of compound 11a at a concentration of 1.8 mM. The cells were pulsed with 0.5 μCi of ^3 H-thymidine per sample for 4 hours, harvested, and the amount of incorporated ^3 H-thymidine was determined by scintillation counting. The CHO cells allowed to proliferate in the absence of added compound yielded a value of 57025 (±7530) CPM. The value for the sample grown in the presence of 11a was 52549 (±6272) CPM.

[5] = system: human peripheral blood lymphocytes (PBL); experiment: Inhibition of proliferation of peripheral blood lymphocytes, 3H-thymidine incorporation; type: cell-based; settings: without stimulant, concentration ranges used in the proliferation assay

Compound `COc1ccc(C(=O)O)c2c1CC1(CCCCC1)O2` [Compound 11a, 7-carboxy-4-methoxyspiro[benzofuran-2(3H)-cyclohexane]] has a pIC50 (C3a production) of 1.66, a pIC50 (C5a production) of 2.30 and a % spontaneous 51Cr release of K562 target cells alone at 4 h, 400 µM ([1]; 0.4 mM) of 5%. The % spontaneous 51Cr release of K562 target cells alone at 4 h, 800 µM ([1]; 0.8 mM) was 5%, the % spontaneous 51Cr release of K562 target cells alone at 4 h, 1600 µM ([1]; 1.6 mM) was 5% and the % spontaneous 51Cr release of K562 target cells alone at 4 h, 3200 µM ([1]; 3.2 mM) was 5%. For the same compound, the % spontaneous 51Cr release of K562 target cells alone at 4 h, 6400 µM ([1]; 6.4 mM) was 23%, the “% Specific Lysis” value ([2]; 0.4 mM) was 7% and the “% Specific Lysis” value ([2]; 0.8 mM) was 4%. The “% Specific Lysis” value ([2]; 1.6 mM) was 1%, the “% Specific Lysis” value ([2]; 3.2 mM) was -1% and the “% Specific Lysis” value ([2]; 6.4 mM) was 18%. For the same compound, the “Number of Cells Positive for IL-2R” value ([3]; 0.44 nM (so in the source)) was 913, the “Percentage Positive” value ([3]; 0.44 nM (so in the source)) was 18.3 and the “Number of Cells Positive for IL-2R” value ([3]; 1.76 nM (so in the source)) was 225. The “Percentage Positive” value ([3]; 1.76 nM (so in the source)) was 4.5, the “inhibition of CHO cell proliferation” value [4] was “no inhibition” and the “incorporated 3H-thymidine” value ([4]; 1.8 mM, CHO cells) was 52549 (±6272) CPM. For the same compound, the “PBL viability by trypan blue exclusion” value [5] was “viable”.
